Measured values from PubChem BioAssay AID588835 (The Scripps Research Institute Molecular Screening Center, 2011).
The source made the active and inactive calls. The rule behind the calls is not given here.

How the values were obtained:
[1] = target: Monoacylglycerol lipase ABHD6 (Mus musculus) (UniProt Q8R2Y0); assay: in situ PREP and ABHD6 off-target inhibition, dose response, selectivity assay for PME-1 inhibitor project, cell-based, fluorescence, gel-based ABPP (AID 588835); conditions: in situ gel-based competitive ABPP
[2] = target: Prolyl endopeptidase (Mus musculus) (UniProt Q9QUR6); assay: as above; conditions: in situ gel-based competitive ABPP, PREP, IC50, second panel column
Prolyl endopeptidase (Mus musculus), sequence (Q9QUR6 whole entry, looked up): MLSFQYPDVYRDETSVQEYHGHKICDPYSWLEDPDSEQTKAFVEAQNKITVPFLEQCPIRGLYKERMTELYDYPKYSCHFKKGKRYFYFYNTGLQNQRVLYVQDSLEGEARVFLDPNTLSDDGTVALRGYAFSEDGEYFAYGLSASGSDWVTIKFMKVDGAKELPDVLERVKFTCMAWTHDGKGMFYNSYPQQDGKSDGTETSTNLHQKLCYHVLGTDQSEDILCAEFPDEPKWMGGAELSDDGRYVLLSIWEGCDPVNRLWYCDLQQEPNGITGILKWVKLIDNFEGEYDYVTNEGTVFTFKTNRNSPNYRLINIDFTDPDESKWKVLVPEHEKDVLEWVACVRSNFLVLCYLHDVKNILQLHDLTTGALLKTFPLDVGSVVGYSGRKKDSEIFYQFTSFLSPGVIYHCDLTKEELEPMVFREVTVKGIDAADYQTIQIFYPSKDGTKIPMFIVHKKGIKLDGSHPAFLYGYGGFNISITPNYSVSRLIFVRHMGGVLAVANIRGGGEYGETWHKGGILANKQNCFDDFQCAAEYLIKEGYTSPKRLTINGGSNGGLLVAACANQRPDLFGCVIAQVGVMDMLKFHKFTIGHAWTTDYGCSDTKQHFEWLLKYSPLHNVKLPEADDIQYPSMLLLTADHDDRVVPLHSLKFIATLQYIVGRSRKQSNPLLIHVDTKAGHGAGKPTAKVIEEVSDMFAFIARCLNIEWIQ

Monoacylglycerol lipase ABHD6 (Mus musculus), sequence (Q8R2Y0 whole entry, looked up): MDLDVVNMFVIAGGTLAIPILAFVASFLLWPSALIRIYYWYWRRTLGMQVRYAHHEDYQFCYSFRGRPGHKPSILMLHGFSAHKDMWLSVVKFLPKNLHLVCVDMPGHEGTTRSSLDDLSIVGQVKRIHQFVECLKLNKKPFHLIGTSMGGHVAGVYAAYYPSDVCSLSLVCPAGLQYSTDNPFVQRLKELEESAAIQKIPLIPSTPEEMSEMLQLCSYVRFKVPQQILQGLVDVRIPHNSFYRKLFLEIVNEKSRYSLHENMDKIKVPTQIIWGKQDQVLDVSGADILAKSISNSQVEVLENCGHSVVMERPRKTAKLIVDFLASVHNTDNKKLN

IC50 [1]: inactive
IC50 [2]: 2.34 µM
Structure (SMILES): CC[C@@]1(c2ccc(C)cc2)C(=O)N(C(=O)OC(C)C)N1C(=O)OC(C)C
